Reference: patent US20080274522A1, “METHOD FOR THE PRODUCTION OF 2-BUTANONE” (priority 2007, published 2008)

Tests used:
[1] = system: Erwinia amino alcohol O-phosphate lyase; assay: Aminopropanol O-phosphate lyase assay (MBTH, OD670); format: biochemical, Erwinia carotovora subsp. atroseptica; settings: 10 mM substrate, 37° C.
Method: The pBAD.KA-AT plasmid was transformed into the E. coli TOP10 strain. A 50 mL culture of TOP10/pBAD.KA-AT strain was grown to mid log phase (OD600=0.6) in LB, 100 μg/mL ampicillin media at 37° C. with shaking at 250 rpm. The culture was induced by addition of L-arabinose to a final concentration of 0.1% (w/v), and it was further incubated at 37° C. for 5 h before harvesting by centrifugation. The cell pellet was resuspended in ice cold 50 mM Tris-HCl, pH 8.0, and disrupted by sonication on ice with a Fischer Sonic Model 300 Dismembrator (Fischer, Pittsburgh, Pa.) at 50% power, repeating four cycles of 30 seconds sonication with 60 seconds rest in-between each cycle. Each sonicated sample was centrifuged (15,000×g, 4 min, 4° C.). Clarified cell free extracts were analyzed for protein expression level and amino alcohol O-phosphate lyase activity.
The aminopropanol O-phosphate lyase assay was performed as described by Jones et al. (1973, Biochem. J. 134:167-182) and G. Gori et al. (1995, Chromatographia 40:336) The formation of propionaldehyde from aminopropanol O-phosphate was assayed calorimetrically with MBTH, which allows the detection of aldehyde formation. The reaction was performed as follows. In a 1 mL reaction, 100 μg cell free extract of E. coli TOP10/pBAD.KA-AT was added to 10 mM DL-1-amino-2-propanol O-phosphate in 100 mM Tris-HCl, pH 7.8, with 0.1 mM PLP. The reaction was incubated at 37° C. for 10 min and 30 min, with an aliquot of 100 μL reaction mixture removed at each time point and mixed with 100 μL of 6 mg/mL MBTH in 375 mM glycine-HCl, pH 2.7. This mixture was incubated at 100° C. for 3 min, cooled on ice for 15-30 s, and 1 mL of 3.3 mg/mL FeCl3.6H2O (in 10 mM HCl) was added, followed by incubation for 30 min at room temperature. The absorbance of the reaction mixture which contains the aldehyde-MBTH adduct, was measured at 670 nm. In the presence of the aminopropanol phosphate substrate, PLP and cell free extract, formation of aldehyde was detected, as indicated by an Abs670 that was higher than the control background of up to 0.3. In the absence of either the substrate or the cell free extract, no aldehyde formation was detected. In the absence of added PLP, somewhat less amount aldehyde was detected, presumably due to the presence of PLP in the cell free extract.

[2] = system: B12-independent diol dehydratase; settings: Hartmanis et al. (1986); cited from earlier work
[3] = system: Lactobacillus plantarum PN0512; assay: Growth of L. plantarum PN0512 in the presence of butanols at different temperatures (OD600); format: cell-based; parameters: key to Growth of L. plantarum PN0512 in the presence of 1-butanol / Growth of L. plantarum PN0512 in the presence of isobutanol / Growth of L. plantarum PN0512 in the presence of 2-butanol: +: growth observed as an increase in OD600.; −: no growth observed, i.e. no change in OD600
Method: Tolerance levels of bacterial strain Lactobacillus plantarum PN0512 (ATCC # PTA-7727) were determined at 25° C., 30° C. and 37° C. as follows. The strain was cultured in S30L medium (i.e., 10 mM ammonium sulfate, 5 mM potassium phosphate buffer, pH 7.0, 50 mM MOPS, pH 7.0, 2 mM MgCl2, 0.7 mM CaCl2, 50 μM MnCl2, 1 μM FeCl3, 1 μM ZnCl2, 1.72 μM CuCl2, 2.53 μM COCl2, 2.42 μM Na2MoO4, 2 μM thiamine hydrochloride, 10 mM glucose, and 0.2% yeast extract). An overnight culture in the absence of any test compound was started in 15 mL of the S30L medium in a 150 mL flask, with incubation at 37° C. in a shaking water bath. The next morning, the overnight culture was diluted into three 500 mL flasks containing 150 mL of fresh medium to an initial OD600 of about 0.08. Each flask was incubated in a shaking water bath, one each at 25° C., 30° C. and 37° C. Each large culture was allowed to acclimate at the test temperature for at least 0.5 h. […] Growth was followed by measuring OD600 for six hours after addition of the compounds.

[4] = Sample 2: induced cell free extract, PLP (+)
[5] = Sample 4: induced cell free extract, PLP (−)

CC(CN)OP(=O)(O)O (racemic) [Aminopropanol O-phosphate, DL-1-amino-2-propanol O-phosphate]
OD670, 10 min [1, 4]: 1.229 | OD670, 30 min [1, 4]: 2.264 | OD670, 10 min [1, 5]: 0.855 | OD670, 30 min [1, 5]: 1.454

CC(O)C(C)O (stereo not shown) [2,3-butanediol]
Activity relative to the activity towards ethanediol [2]: less than 1%

CCC(C)O (stereo not shown) [2-butanol]
Growth of L. plantarum PN0512 in the presence of 2-butanol ([3]; 1.8 % w/v, 37° C.): + | Growth of L. plantarum PN0512 in the presence of 2-butanol ([3]; 2.1 % w/v, 37° C.): + | Growth of L. plantarum PN0512 in the presence of 2-butanol ([3]; 2.9 % w/v, 25° C.): + | Growth of L. plantarum PN0512 in the presence of 2-butanol ([3]; 2.9 % w/v, 30° C.): + | Growth of L. plantarum PN0512 in the presence of 2-butanol ([3]; 2.9 % w/v, 37° C.): + | Growth of L. plantarum PN0512 in the presence of 2-butanol ([3]; 3.1 % w/v, 37° C.): + | Growth of L. plantarum PN0512 in the presence of 2-butanol ([3]; 3.6 % w/v, 37° C.): + | Growth of L. plantarum PN0512 in the presence of 2-butanol ([3]; 3.8 % w/v, 25° C.): + | Growth of L. plantarum PN0512 in the presence of 2-butanol ([3]; 3.8 % w/v, 30° C.): + | Growth of L. plantarum PN0512 in the presence of 2-butanol ([3]; 3.8 % w/v, 37° C.): + | Growth of L. plantarum PN0512 in the presence of 2-butanol ([3]; 4.0 % w/v, 30° C.): + | Growth of L. plantarum PN0512 in the presence of 2-butanol ([3]; 4.3 % w/v, 25° C.): + | Growth of L. plantarum PN0512 in the presence of 2-butanol ([3]; 4.3 % w/v, 30° C.): + | Growth of L. plantarum PN0512 in the presence of 2-butanol ([3]; 4.3 % w/v, 37° C.): + | Growth of L. plantarum PN0512 in the presence of 2-butanol ([3]; 4.7 % w/v, 25° C.): + | Growth of L. plantarum PN0512 in the presence of 2-butanol ([3]; 4.7 % w/v, 30° C.): + | Growth of L. plantarum PN0512 in the presence of 2-butanol ([3]; 4.7 % w/v, 37° C.): − | Growth of L. plantarum PN0512 in the presence of 2-butanol ([3]; 4.9 % w/v, 25° C.): + | Growth of L. plantarum PN0512 in the presence of 2-butanol ([3]; 4.9 % w/v, 30° C.): − | Growth of L. plantarum PN0512 in the presence of 2-butanol ([3]; 5.2 % w/v, 25° C.): + | Growth of L. plantarum PN0512 in the presence of 2-butanol ([3]; 5.2 % w/v, 37° C.): − | Growth of L. plantarum PN0512 in the presence of 2-butanol ([3]; 5.6 % w/v, 25° C.): − | Growth of L. plantarum PN0512 in the presence of 2-butanol ([3]; 5.6 % w/v, 37° C.): − | Growth of L. plantarum PN0512 in the presence of 2-butanol ([3]; 6.0 % w/v, 37° C.): − | Growth of L. plantarum PN0512 in the presence of 2-butanol ([3]; 6.4 % w/v, 37° C.): − | Growth of L. plantarum PN0512 in the presence of 2-butanol ([3]; 7.3 % w/v, 37° C.): − | Concentration in which growth was observed ([3]; 25° C.): 5.2% | Concentration in which growth was not observed ([3]; 30° C.): 4.9% | Concentration in which growth was observed ([3]; 30° C.): 4.7% | Concentration in which growth was not observed ([3]; 37° C.): 4.5% | Concentration in which growth was observed ([3]; 37° C.): 4.3% | Growth of L. plantarum PN0512 in the presence of 2-butanol ([3]; […] w/v, 30° C.): +
